Reference: ChEMBL document CHEMBL1629671, “Activity of posaconazole and other antifungal agents against Mucorales strains identified by sequencing of internal transcribed spacers” (2009)
≈ marks a conversion by molar mass, not a printed value.

Assays:
Type in all cases: functional
[1] = test system: Rhizopus arrhizus; experiment: Antifungal activity against Rhizopus oryzae after 24 hrs by microdilution method
[2] = test system: Cunninghamella; experiment: Antifungal activity against Cunninghamella spp. after 48 hrs by microdilution method
[3] = test system: Apophysomyces; experiment: Antifungal activity against Apophysomyces spp. after 48 hrs by microdilution method
[4] = test system: Lichtheimia corymbifera; experiment: Antifungal activity against Mycocladus corymbifer after 24 hrs by microdilution method
[5] = test system: Rhizopus arrhizus; experiment: Antifungal activity against Rhizopus oryzae after 48 hrs by microdilution method
[6] = test system: Actinomucor; experiment: Antifungal activity against Actinomucor spp. after 48 hrs by microdilution method
[7] = Antifungal activity against Rhizomucor pusillus after 24 hrs by microdilution method
[8] = Antifungal activity against Rhizomucor variabilis after 48 hrs by microdilution method
[9] = test system: Actinomucor; experiment: Antifungal activity against Actinomucor spp. after 24 hrs by microdilution method
[10] = test system: Lichtheimia corymbifera; experiment: Antifungal activity against Mycocladus corymbifer after 48 hrs by microdilution method
[11] = Antifungal activity against Rhizomucor pusillus after 48 hrs by microdilution method
[12] = test system: Mucor circinelloides; experiment: Antifungal activity against Mucor circinelloides after 24 hrs by microdilution method
[13] = Antifungal activity against Rhizomucor variabilis after 24 hrs by microdilution method
[14] = test system: Apophysomyces; experiment: Antifungal activity against Apophysomyces spp. after 24 hrs by microdilution method
[15] = Antifungal activity against Rhizopus microsporus after 48 hrs by microdilution method
[16] = test system: Cunninghamella bertholletiae; experiment: Antifungal activity against Cunninghamella bertholletiae after 48 hrs by microdilution method
[17] = Antifungal activity against Rhizopus microsporus after 24 hrs by microdilution method
[18] = test system: Mucor circinelloides; experiment: Antifungal activity against Mucor circinelloides after 48 hrs by microdilution method
[19] = test system: Cunninghamella bertholletiae; experiment: Antifungal activity against Cunninghamella bertholletiae after 24 hrs by microdilution method
[20] = test system: Cunninghamella; experiment: Antifungal activity against Cunninghamella spp. after 24 hrs by microdilution method

| Compound | MIC [1] [µg/mL] | MIC [2] [µg/mL] | MIC [3] [µg/mL] | MIC [4] [µg/mL] | MIC [5] [µg/mL] | MIC [6] [µg/mL] | MIC [7] [µg/mL] | MIC [8] [µg/mL] | MIC [9] [µg/mL] | MIC [10] [µg/mL] | MIC [11] [µg/mL] | MIC [12] [µg/mL] | MIC [13] [µg/mL] | MIC [14] [µg/mL] | MIC [15] [µg/mL] | MIC [16] [µg/mL] | MIC [17] [µg/mL] | MIC [18] [µg/mL] | MIC [19] [µg/mL] | MIC [20] [µg/mL] |
| --- | --- | --- | --- | --- | --- | --- | --- | --- | --- | --- | --- | --- | --- | --- | --- | --- | --- | --- | --- | --- |
| C[C@@H]1[C@H](O)[C@@H](C)/C=C/C=C/C=C/C=C/C=C/C=C/C=C/[C@H](O[C@@H]2O[C@H](C)[C@@H](O)[C@H](N)[C@@H]2O)C[C@@H]2O[C@](O)(C[C@@H](O)C[C@@H](O)[C@H](O)CC[C@@H](O)C[C@@H](O)CC(=O)O[C@H]1C)C[C@H](O)[C@H]2C(=O)O [AMPHOTERICIN B] | 0.29 (≈ 0.314 µM) | 4 (≈ 4.33 µM) | 8 (≈ 8.66 µM) | 0.08 (≈ 0.0866 µM) | 1 (≈ 1.08 µM) | 1.41 (≈ 1.53 µM) | 0.05 (≈ 0.0541 µM) | 0.09 (≈ 0.0974 µM) | 1 (≈ 1.08 µM) | 0.14 (≈ 0.152 µM) | 0.1 (≈ 0.108 µM) | 0.05 (≈ 0.0541 µM) | 0.03 (≈ 0.0325 µM) | 2 (≈ 2.16 µM) | 0.89 (≈ 0.963 µM) | 7.13 (≈ 7.72 µM) | 0.45 (≈ 0.487 µM) | 0.15 (≈ 0.162 µM) | 7.13 (≈ 7.72 µM) | 2.83 (≈ 3.06 µM) |
| CCC(C)n1ncn(-c2ccc(N3CCN(c4ccc(OCC5COC(Cn6cncn6)(c6ccc(Cl)cc6Cl)O5)cc4)CC3)cc2)c1=O (stereo not given) [ITRACONAZOLE] | 4 (≈ 5.67 µM) | 4 (≈ 5.67 µM) | 16 (≈ 22.7 µM) | 0.68 (≈ 0.964 µM) | 6.96 (≈ 9.86 µM) | 2 (≈ 2.83 µM) | 0.29 (≈ 0.411 µM) | 16 (≈ 22.7 µM) | 2 (≈ 2.83 µM) | 1.35 (≈ 1.91 µM) | 0.44 (≈ 0.624 µM) | 11.9 (≈ 16.8 µM) | 16 (≈ 22.7 µM) | 16 (≈ 22.7 µM) | 3.56 (≈ 5.05 µM) | 10.1 (≈ 14.3 µM) | 1.59 (≈ 2.25 µM) | 16 (≈ 22.7 µM) | 3.17 (≈ 4.49 µM) | 0.5 (≈ 0.709 µM) |
| CC[C@@H]([C@H](C)O)n1ncn(-c2ccc(N3CCN(c4ccc(OC[C@@H]5CO[C@@](Cn6cncn6)(c6ccc(F)cc6F)C5)cc4)CC3)cc2)c1=O [POSACONAZOLE] | 1.15 (≈ 1.64 µM) | 4 (≈ 5.71 µM) | 1 (≈ 1.43 µM) | 0.41 (≈ 0.585 µM) | 2 (≈ 2.85 µM) | 0.125 (≈ 0.178 µM) | 0.16 (≈ 0.228 µM) | 16 (≈ 22.8 µM) | 0.06 (≈ 0.0856 µM) | 0.67 (≈ 0.956 µM) | 0.28 (≈ 0.4 µM) | 1.49 (≈ 2.13 µM) | 1.41 (≈ 2.01 µM) | 0.5 (≈ 0.713 µM) | 3.17 (≈ 4.52 µM) | 4.59 (≈ 6.55 µM) | 0.79 (≈ 1.13 µM) | 2.69 (≈ 3.84 µM) | 2.3 (≈ 3.28 µM) | 0.25 (≈ 0.357 µM) |
| C[C@@H](c1nc(-c2ccc(C#N)cc2)cs1)[C@](O)(Cn1cncn1)c1ccc(F)cc1F [RAVUCONAZOLE] | 1 (≈ 2.29 µM) | 8 (≈ 18.3 µM) | 4 (≈ 9.14 µM) | 1.22 (≈ 2.79 µM) | 1.32 (≈ 3.02 µM) | 0.5 (≈ 1.14 µM) | 0.66 (≈ 1.51 µM) | 16 (≈ 36.6 µM) | 0.25 (≈ 0.571 µM) | 2 (≈ 4.57 µM) | 0.87 (≈ 1.99 µM) | 11.9 (≈ 27.2 µM) | 8 (≈ 18.3 µM) | 2 (≈ 4.57 µM) | 1.78 (≈ 4.07 µM) | 12.1 (≈ 27.7 µM) | 0.89 (≈ 2.03 µM) | 13.1 (≈ 30 µM) | 8 (≈ 18.3 µM) | 1 (≈ 2.29 µM) |
| CN(C/C=C/C#CC(C)(C)C)Cc1cccc2ccccc12 [TERBINAFINE] | 24.2 (≈ 83.2 µM) | 0.18 (≈ 0.618 µM) | 2 (≈ 6.86 µM) | 0.5 (≈ 1.72 µM) | 32 (≈ 110 µM) | 0.36 (≈ 1.24 µM) | 0.22 (≈ 0.755 µM) | 32 (≈ 110 µM) | 0.125 (≈ 0.429 µM) | 1 (≈ 3.43 µM) | 0.33 (≈ 1.13 µM) | 21.5 (≈ 73.9 µM) | 32 (≈ 110 µM) | 2 (≈ 6.86 µM) | 1.41 (≈ 4.84 µM) | 0.49 (≈ 1.68 µM) | 0.71 (≈ 2.44 µM) | 32 (≈ 110 µM) | 0.4 (≈ 1.37 µM) | 0.13 (≈ 0.446 µM) |
| C[C@@H](c1ncncc1F)[C@](O)(Cn1cncn1)c1ccc(F)cc1F [VORICONAZOLE] | 12.1 (≈ 34.7 µM) | 16 (≈ 45.8 µM) | 16 (≈ 45.8 µM) | 14.5 (≈ 41.5 µM) | 16 (≈ 45.8 µM) | 22.6 (≈ 64.8 µM) | 5.28 (≈ 15.1 µM) | 16 (≈ 45.8 µM) | 16 (≈ 45.8 µM) | 16 (≈ 45.8 µM) | 6.06 (≈ 17.3 µM) | 16 (≈ 45.8 µM) | 16 (≈ 45.8 µM) | 16 (≈ 45.8 µM) | 8.98 (≈ 25.7 µM) | 16 (≈ 45.8 µM) | 8 (≈ 22.9 µM) | 16 (≈ 45.8 µM) | 16 (≈ 45.8 µM) | 16 (≈ 45.8 µM) |
